Experimental data published in patent US8673904B2, “Epoxide inhibitors of cysteine proteases” (The Board of Trustees of the Leland Stanford Junior …, priority 2006, dated 2014).

Tests used:
[1] = tested on: cathepsin targets; test: Cathepsin targets of the compounds (Table 4); type: biochemical, rat; details: cathepsin target(s) inhibited; General = all cathepsins
Protocol: (§1) Also included in the table for comparison are known compounds JPMOEt and JPMOH (also known as JPM-565). See Meara and Rich, J. Med. Chem. 39:3357-3366, 1996; Bogyo et al, Chem. Biol. 7:27-38, 2000; and Joyce et al., Cancer Cell 5:443-453, 2004. The table also lists cathepsin targets and measured IC50 values for specific compounds. To determine these values, 1 mg/ml of rat liver lysate was incubated with a series of concentrations of the inhibitor for 20 minutes. Then, 1 ul of a radiolabled general cathepsin probe, DCG-04, was added to the solutions and incubated for 1 hour. After fixing and drying the gel, the residual enzyme activity was measured using ImageJ software. The measurements were then transferred to GraphPad Prism 4 to calculate the IC50 values.

[2] = tested on: other cathepsin targets; test: Competition/profiling in total rat liver extracts, 125I-labeled JPM-OEt labeling; type: biochemical; details: FIG. 2, at concentrations as high as 50 micromolar
Protocol: (§2) The library compounds all contained a tyrosine residue at the R3 position. They contained either a leucine residue (top and middle panels) or a 4-methylphenylalanine residue (bottom panel) at the A2 position. The amine at R1 is indicated above each panel, with numbering as defined in Table 1. Samples were analyzed by SDS-PAGE followed by autoradiography. Controls (C) are shown where DMSO was added in place of the inhibitor. The parent compounds JPM-OEt (Et) and JPM-565 (OH) are also included as positive controls. Note the loss of reactivity for all (2R,3R) compounds and the change in specificity of JPM analogs in which the (2R,3R) (middle panel—OH and Et) is used in place of the (2S,3S) (top panel—OH and Et) epoxides.
(§3) Joyce et al., Cancer Cell 5:443-453, 2004.
(§4) FIGS. 3 and 4 show additional competition assays with other compounds of the invention at various concentrations. The compounds were added to total rat liver extracts at the indicated concentrations, as described above, and the mixtures were subsequently treated with ^125I-labeled JPM-OEt to label proteins with residual activity. The in vivo pharmacokinetic properties, potency, and selectivity of some of these compounds are further described in Sadaghiani et al., Chem. Biol. 14:499-511, 2007, which is incorporated herein by reference in its entirety.

[3] = target: T1, CatC (Rattus norvegicus, UniProt P80067); test: IC50 by competition with radiolabeled general cathepsin probe DCG-04 in rat liver lysate; type: biochemical; details: 1 mg/ml rat liver lysate, inhibitor 20 minutes, then DCG-04 1 hour
T1 construct: from tissue; host or cells: rat liver lysate
T1 sequence (P80067 25-462): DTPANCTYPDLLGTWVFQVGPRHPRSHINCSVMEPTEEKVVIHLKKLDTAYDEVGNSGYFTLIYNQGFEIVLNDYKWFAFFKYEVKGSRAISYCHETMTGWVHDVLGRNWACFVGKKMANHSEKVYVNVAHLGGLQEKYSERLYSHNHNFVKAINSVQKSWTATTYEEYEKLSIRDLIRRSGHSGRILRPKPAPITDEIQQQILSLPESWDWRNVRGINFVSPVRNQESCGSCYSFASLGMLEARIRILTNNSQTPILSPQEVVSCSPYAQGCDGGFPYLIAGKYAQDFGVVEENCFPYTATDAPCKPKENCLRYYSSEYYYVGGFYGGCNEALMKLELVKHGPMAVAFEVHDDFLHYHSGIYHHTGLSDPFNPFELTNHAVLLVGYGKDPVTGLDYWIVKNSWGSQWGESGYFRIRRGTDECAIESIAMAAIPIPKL
Protocol: as §1

[4] = target: T2, CatH (Rattus norvegicus, UniProt P00786); test: as above; type: biochemical; details: 1 mg/ml rat liver lysate, inhibitor 20 minutes, then DCG-04 1 hour
T2 construct: from tissue; host or cells: rat liver lysate
T2 sequence (P00786 96-333): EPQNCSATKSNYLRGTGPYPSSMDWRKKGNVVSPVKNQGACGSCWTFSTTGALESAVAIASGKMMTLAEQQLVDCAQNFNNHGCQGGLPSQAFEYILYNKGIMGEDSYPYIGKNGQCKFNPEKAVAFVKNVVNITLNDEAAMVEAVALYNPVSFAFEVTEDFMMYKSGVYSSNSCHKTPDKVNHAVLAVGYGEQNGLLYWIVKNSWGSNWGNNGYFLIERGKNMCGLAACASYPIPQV
Protocol: as §1

[5] = target: T3, CatZ (Cathepsin Z) (Rattus norvegicus, UniProt Q9R1T3); test: as above; type: biochemical; details: 1 mg/ml rat liver lysate, inhibitor 20 minutes, then DCG-04 1 hour
T3 construct: from tissue; host or cells: rat liver lysate
T3 sequence (Q9R1T3 64-306): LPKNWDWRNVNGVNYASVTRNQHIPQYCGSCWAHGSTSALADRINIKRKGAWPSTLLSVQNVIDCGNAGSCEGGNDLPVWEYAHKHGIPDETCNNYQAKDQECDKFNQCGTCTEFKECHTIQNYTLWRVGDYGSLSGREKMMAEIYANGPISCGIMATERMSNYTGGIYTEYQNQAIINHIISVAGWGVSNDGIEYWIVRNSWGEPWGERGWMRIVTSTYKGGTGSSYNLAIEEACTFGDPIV
Protocol: as §1

[6] = target: T4, CatB (Rattus norvegicus, UniProt P00787); test: as above; type: biochemical; details: 1 mg/ml rat liver lysate, inhibitor 20 minutes, then DCG-04 1 hour
T4 construct: from tissue; host or cells: rat liver lysate / homogenate
T4 sequence (P00787 80-333): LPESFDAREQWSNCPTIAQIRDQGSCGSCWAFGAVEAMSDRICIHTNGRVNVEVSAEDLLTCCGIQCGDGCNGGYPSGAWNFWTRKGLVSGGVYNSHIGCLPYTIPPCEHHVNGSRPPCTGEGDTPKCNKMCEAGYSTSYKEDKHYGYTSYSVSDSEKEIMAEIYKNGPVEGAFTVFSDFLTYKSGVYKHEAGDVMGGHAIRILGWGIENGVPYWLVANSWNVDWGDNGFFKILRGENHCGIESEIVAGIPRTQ
Protocol: as §1

[7] = target: T5, cathepsin B (Rattus norvegicus, UniProt P00787); test: Competition in rat liver homogenates, 125I-labeled JPM-OEt labeling; type: biochemical; details: FIG. 2, rat liver homogenates
T5 construct: from tissue; host or cells: rat liver lysate / homogenate
T5 sequence (P00787 80-333): as above
Protocol: as §2, §3, §4

[8] = tested on: RIP-Tag cancer model; details: Joyce et al., Cancer Cell 5:443-453, 2004; cited from earlier work

Row | Structure (SMILES) | Target [1] | activity against other cathepsin targets [2] | IC50 [3] | IC50 [4] | IC50 [5] | IC50 [6] | potency for cathepsin B compared to parent compound JPM-565 [7] | efficacy in the RIP-Tag cancer model [8]
1 | CC(C)C[C@H](NC(=O)C1OC1C(=O)NCCc1ccc(O)cc1)C(=O)N[C@@H](Cc1ccc(O)cc1)C(N)=O (single isomer, unassigned) [Compound 46] | Cat B | little or no activity against other cathepsin targets | > 50 µM | > 50 µM | > 10 µM | 0.01 µM | retain similar potency for cathepsin B compared to parent compound JPM-565 | 
2 | Cc1ccc(C[C@H](NC(=O)[C@H]2OC2C(=O)NCC(=O)O)C(=O)N[C@@H](Cc2ccc(O)cc2)C(N)=O)cc1 (stereo partly shown) [Compound 16] | Cat Z^1 |  | > 10 µM | > 10 µM | 0.1 µM |  |  | 
3 | CC(C)C[C@H](NC(=O)C1OC1C(=O)NCCc1ccc(O)cc1)C(=O)N[C@@H](Cc1ccc(O)cc1)C(N)=O (stereo partly shown) [Compound 25] | Cat B |  | 11 µM | 21 µM | > 10 µM | 0.02 µM |  | 
4 | CC(C)C[C@H](NC(=O)C1OC1C(=O)NCCCO)C(=O)N[C@@H](Cc1ccc(O)cc1)C(N)=O (stereo partly shown) [Compound 31] | Cat B |  | 11 µM | 5.45 µM | 1.1 µM | 0.01 µM |  | 
5 | CC(C)C[C@H](NC(=O)[C@H]1OC1C(=O)O)C(=O)N[C@@H](Cc1ccc(O)cc1)C(N)=O (stereo partly shown) [Compound 40] | General |  | 0.2 µM | 5.45 µM | 0.1 µM | 0.02 µM |  | 
6 | CC(C)C[C@H](NC(=O)C1O[C@H]1C(=O)NCCCO)C(=O)N[C@@H](Cc1ccc(O)cc1)C(N)=O (stereo partly shown) [Compound 52] | Cat B | little or no activity against other cathepsin targets | > 50 µM | > 50 µM | 1.8 µM | 0.05 µM | retain similar potency for cathepsin B compared to parent compound JPM-565 | 
7 | CC(C)C[C@H](NC(=O)C1OC1C(=O)O)C(=O)N[C@@H](Cc1ccc(O)cc1)C(N)=O (stereo partly shown) [Compound 60] | Cat B & Z |  | > 25 µM | > 25 µM | 0.1 µM | 0.4 µM |  | 
8 | CC(C)C[C@H](NC(=O)[C@H]1O[C@@H]1C(=O)NCCc1ccc(O)cc1)C(=O)NCCc1ccccn1 [Compound 63] | Cat B & Z |  | > 10 µM | > 10 µM | > 10 µM | 0.31 µM |  | 
9 | CC(C)C[C@H](NC(=O)[C@H]1O[C@@H]1C(=O)NCCc1ccc(O)cc1)C(=O)NCc1cccc2ccccc12 [Compound 66] | General |  | 5.69 µM | 6.2 µM | 0.8 µM | 0.32 µM |  | 
10 | NC(=O)[C@H](Cc1ccc(O)cc1)NC(=O)[C@H](CC1CCCCC1)NC(=O)C1OC1C(=O)O (stereo partly shown) [Compound 74] | Cat B & Z |  | > 25 µM | > 25 µM | 0.3 µM | 1.95 µM |  | 
11 | CCC[C@H](NC(=O)C1O[C@H]1C(=O)O)C(=O)N[C@@H](Cc1ccc(O)cc1)C(N)=O (stereo partly shown) [Compound 75] | Cat B & Z |  | > 25 µM | > 25 µM | 0.2 µM | 0.27 µM |  | 
12 | Cc1ccc(C[C@H](NC(=O)C2O[C@H]2C(=O)O)C(=O)N[C@@H](Cc2ccc(O)cc2)C(N)=O)cc1 (stereo partly shown) [Compound 76] | Cat Z |  | > 25 µM | > 25 µM | 0.2 µM | 6.8 µM |  | 
13 | CCC[C@H](NC(=O)C1O[C@@H]1C(=O)O)C(=O)N[C@@H](Cc1ccc(O)cc1)C(N)=O (stereo partly shown) [Compound 77] | General |  | 0.45 µM | 0.74 µM | 0.1 µM | 0.03 µM |  | 
14 | CCC[C@H](NC(=O)C1O[C@H]1C(=O)NCC(=O)O)C(=O)N[C@@H](Cc1ccc(O)cc1)C(N)=O (stereo partly shown) [Compound 78] | Cat B |  | > 10 µM | > 10 µM | 1 µM | 0.28 µM |  | 
15 | CCC[C@H](NC(=O)C1O[C@@H]1C(=O)NCC(=O)O)C(=O)N[C@@H](Cc1ccc(O)cc1)C(N)=O (stereo partly shown) [Compound 79] | Cat B |  | 19.3 µM | 5.85 µM | 1.3 µM | 0.19 µM |  | 
16 | Cc1ccc(C[C@H](NC(=O)C2O[C@H]2C(=O)NCC(=O)O)C(=O)N[C@@H](Cc2ccc(O)cc2)C(N)=O)cc1 (stereo partly shown) [Compound 80] | Cat B & Z |  | > 10 µM | > 10 µM | 0.8 µM | > 10 µM |  | 
17 | CCOC(=O)[C@H]1O[C@@H]1C(=O)N[C@@H](CC(C)C)C(=O)NCCc1ccc(O)cc1 [JPMOEt, reference compound] | General |  | 8.9 µM | 4.65 µM | 0.2 µM | 0.04 µM |  | 
18 | CC(C)C[C@H](NC(=O)[C@H]1O[C@@H]1C(=O)O)C(=O)NCCc1ccc(O)cc1 [JPMOH, reference compound] | General |  | 1 µM | 0.58 µM | 0.1 µM | 0.4 µM |  | shown to have efficacy in the RIP-Tag cancer model
